Test results published in paper PMC5085154 (2016).

Tests used:
[1] = test system: Pu27 (DNA, G4) TGGGGAGGGTGGGGAGGGTGGGGAAGG; experiment: CD titration; settings: K+ 100 mM; 10 mM Tris-HCl, pH 7.2; 5 μM DNA; 0-5 mol equiv compound
[2] = test system: FPu18T (Pu18) (DNA, G4) AGGGTGGGGAGGGTGGGG; experiment: FRET melting; settings: K+ (KCl, concentration not given); pH 7.2; Tm with ligand, "up to", not a shift; compound 2 μM (from mixing volumes), DNA 0.2 μM
[3] = test system: Pu27 (DNA, G4) TGGGGAGGGTGGGGAGGGTGGGGAAGG; experiment: PCR stop assay; settings: apparent; Taq polymerase, Pu27rev reverse primer, 10 cycles, 58°C annealing; gel densitometry
[4] = test system: Pu27 (DNA, G4) TGGGGAGGGTGGGGAGGGTGGGGAAGG; experiment: CD spectroscopy; settings: none (salt-free); 10 mM Tris-HCl, pH 7.2; 5 μM DNA; induces parallel G-quadruplex
[5] = test system: Pu27 (DNA, G4) TGGGGAGGGTGGGGAGGGTGGGGAAGG; experiment: competition dialysis; settings: Na+ 100 mM; 10 mM Tris-HCl, pH 7.2, room temperature; 1 μM compound; strongest of set; bound amount in figure
HT-7 (DNA, G4) TTAGGGT = experiment: competition dialysis; settings: Na+ 100 mM; 10 mM Tris-HCl, pH 7.2, room temperature; 1 μM compound; bound amount in figure
[6] = test system: HTG21 (DNA, G4) GGGTTAGGGTTAGGGTTAGGG; experiment: competition dialysis; settings: Na+ 100 mM; 10 mM Tris-HCl, pH 7.2, room temperature; 1 μM compound; bound amount in figure
[7] = test system: HTC21 (DNA, i motif) CCCTAACCCTAACCCTAACCC; experiment: competition dialysis; settings: Na+ 100 mM; 10 mM Tris-HCl, pH 7.2, room temperature; 1 μM compound; bound amount in figure
[8] = test system: HTds (HTC21:HTG21) (DNA, duplex) GGGTTAGGGTTAGGGTTAGGG/CCCTAACCCTAACCCTAACCC; experiment: competition dialysis; settings: Na+ 100 mM; 10 mM Tris-HCl, pH 7.2, room temperature; 1 μM compound; bound amount in figure
[9] = test system: 2(dT21):dA21 (DNA, triplex) AAAAAAAAAAAAAAAAAAAAA/TTTTTTTTTTTTTTTTTTTTT; experiment: competition dialysis; settings: Na+ 100 mM; 10 mM Tris-HCl, pH 7.2, room temperature; 1 μM compound; bound amount in figure
[10] = test system: HTG21mu (DNA, single strand) GAGTTAGAGTTAGAGTTAGAG; experiment: competition dialysis; settings: Na+ 100 mM; 10 mM Tris-HCl, pH 7.2, room temperature; 1 μM compound; bound amount in figure
[11] = test system: dT21 (DNA, single strand) TTTTTTTTTTTTTTTTTTTTT; experiment: competition dialysis; settings: Na+ 100 mM; 10 mM Tris-HCl, pH 7.2, room temperature; 1 μM compound; bound amount in figure
[12] = test system: dA21 (DNA, single strand) AAAAAAAAAAAAAAAAAAAAA; experiment: competition dialysis; settings: Na+ 100 mM; 10 mM Tris-HCl, pH 7.2, room temperature; 1 μM compound; bound amount in figure

binding [1]: yes | Tm [2]: 77.5 °C | IC50 [3]: 2.13 µM | binding [4]: yes | binding [5]: yes | binding (HT-7 (DNA, G4) TTAGGGT): yes | binding [6]: yes | binding [7]: yes | binding [8]: weak | binding [9]: weak | binding [10]: weak | binding [11]: weak | binding [12]: weak
Compound: CN(C)CCCNCCC(=O)Nc1ccc(C(=O)Nc2cc(Cl)ccc2-c2nc(NCCCN(C)C)c3ccccc3n2)cc1
